In patent US4973673A, “Serine analogs of BU-3608 antibiotics” (Bristol-Myers Company, priority 1988, dated 1990):
In brackets after ≈: the same amount, converted by molar mass. Like-named read-outs stand apart in the source and are kept apart here.

What was measured:
A. flavus FA21436 = assay: Serial agar dilution MIC, Sabouraud dextrose agar; type: cell-based; conditions: Aspergillus flavus, pH 7.0, 40 hours at 28° C.
Protocol: (§1) Antifungal activities of representative compounds of the present invention were evaluated both in vitro and in vivo. The minimum inhibitory concentrations (MICs) against various fungi were determined by serial agar dilution method using Sabouraud dextrose agar. Thus, approximately 0.003 ml of fungal suspension containing 10^6 cells/ml was applied to the surface of agar plates containing the test antibiotics.

A. fumigatus IAM2034 [1] = assay: Serial agar dilution MIC, Sabouraud dextrose agar; type: cell-based; conditions: Aspergillus fumigatus, pH 7.0, 40 hours at 28° C.
Protocol: as §1

[2] = tested on: Aspergillus fumigatus IAM2530; assay: Serial agar dilution MIC, Sabouraud dextrose agar; type: cell-based; conditions: pH 7.0, 40 hours at 28° C.
Protocol: as §1

[3] = tested on: Blastomyces dermatitidis D40; assay: Serial agar dilution MIC, Sabouraud dextrose agar; type: cell-based; conditions: pH 7.0, 40 hours at 28° C.
Protocol: as §1

C. albicans A9540 [4] = assay: Serial agar dilution MIC, Sabouraud dextrose agar; type: cell-based; conditions: Candida albicans, pH 7.0, 40 hours at 28° C.
Protocol: as §1

C. neoformans IAM4514 [5] = assay: Serial agar dilution MIC, Sabouraud dextrose agar; type: cell-based; conditions: Cryptococcus neoformans, pH 7.0, 40 hours at 28° C.
Protocol: as §1

Candida albicans IAM4888 = assay: Serial agar dilution MIC, Sabouraud dextrose agar; type: cell-based; conditions: pH 7.0, 40 hours at 28° C.
Protocol: as §1

[6] = tested on: Cryptococcus neoformans D49; assay: Serial agar dilution MIC, Sabouraud dextrose agar; type: cell-based; conditions: pH 7.0, 40 hours at 28° C.
Protocol: as §1

[7] = tested on: Fusarium moniliforme A2284; assay: Serial agar dilution MIC, Sabouraud dextrose agar; type: cell-based; conditions: Fusarium verticillioides, pH 7.0, 40 hours at 28° C.
Protocol: as §1

Mucor spinosus IFO5317 = assay: Serial agar dilution MIC, Sabouraud dextrose agar; type: cell-based; conditions: pH 7.0, 40 hours at 28° C.
Protocol: as §1

[8] = tested on: Petriellidium boydii IFO8073; assay: Serial agar dilution MIC, Sabouraud dextrose agar; type: cell-based; conditions: Scedosporium boydii, pH 7.0, 40 hours at 28° C.
Protocol: as §1

[9] = tested on: Sporothrix schenckii IFO8158; assay: Serial agar dilution MIC, Sabouraud dextrose agar; type: cell-based; conditions: pH 7.0, 40 hours at 28° C.
Protocol: as §1

T. mentagrophytes #4329 = assay: Serial agar dilution MIC, Sabouraud dextrose agar; type: cell-based; conditions: Trichophyton mentagrophytes, pH 7.0, 40 hours at 28° C.
Protocol: as §1

[10] = tested on: Trichophyton mentagrophytes D155; assay: Serial agar dilution MIC, Sabouraud dextrose agar; type: cell-based; conditions: pH 7.0, 40 hours at 28° C.
Protocol: as §1

C. albicans A9540 [11] = assay: In vivo antifungal activity, intravenous infection in mice; set-up: species or system Male ICR mice; conditions: Candida albicans, 480 h, survival on 20th day, read-out: PD50 (50% protective dose)
Protocol: (§2) In vivo antifungal activities were evaluated against intravenous infections with Candida albicans A9540, Cryptococcus neoformans IAM4514 and Aspergillus fumigatus IAM2034 in mice. Candida albicans and Cryptococcus neoformans were cultured for 18 and 48 hours, respectively, at 28° C. in YGP medium [yeast extract(0.2%), glucose(1.5%), peptone(0.5%), K2 HPO4 (0.05%) and MgSO4 (0.05%)] and suspended in saline. Aspergillus fumigatus was cultured for 7 days at 28° C. on YGP agar slant and suspended in saline. Spores were collected by filtering fungal suspension through gauze. Male ICR mice weighing 20 to 24 g were infected intravenously with about 10 times the median lethal dose of the fungi.
(§3) Test compounds were administered at various doses to groups of 5 mice each intravenously either once just after fungal challenge (day 0) or once daily for 5 days from day 0 to day 4 (qd×5). The 50% protective dose (PD50) was calculated from survival rates recorded on the 20th day after fungal challenge. All control animals died within 7 to 15 days after fungal infection.

A. fumigatus IAM2034 [12] = assay: as above; set-up: species or system Male ICR mice; conditions: Aspergillus fumigatus, 480 h, survival on 20th day, read-out: PD50 (50% protective dose)
Protocol: as §2, §3

C. neoformans IAM4514 [13] = assay: as above; set-up: species or system Male ICR mice; conditions: Cryptococcus neoformans, 480 h, survival on 20th day, read-out: PD50 (50% protective dose)
Protocol: as §2, §3

mice = assay: Acute toxicity (LD50) in mice, single intravenous dose; type: in vivo; conditions: at 600 mg/kg, the highest dose tested
Protocol: The LD50 for N,N-dimethyl BU-3608 FA-2 was determined in mice after a single intravenous dose.

[14] = tested on: calcium ion and calmodulin-dependent cyclic nucleotide phosphodiesterase; conditions: background statement; cited from earlier work
[15] = single dose just after challenge

Structure (SMILES) | MIC (A. flavus FA21436) [µg/mL] | MIC (A. fumigatus IAM2034 [1]) [µg/mL] | MIC [2] [µg/mL] | MIC [3] [µg/mL] | MIC (C. albicans A9540 [4]) [µg/mL] | MIC (C. neoformans IAM4514 [5]) [µg/mL] | MIC (Candida albicans IAM4888) [µg/mL] | MIC [6] [µg/mL] | MIC [7] [µg/mL] | MIC (Mucor spinosus IFO5317) [µg/mL] | MIC [8] [µg/mL] | MIC [9] [µg/mL] | MIC (T. mentagrophytes #4329) [µg/mL] | MIC [10] [µg/mL] | ED50 (C. albicans A9540 [11]; [15]) [mg/kg] | also measured
CN[C@@H]1[C@H](O[C@@H]2OC[C@@H](O)[C@H](O)[C@H]2O)[C@@H](O)[C@H](O[C@H]2c3cc(C)c(C(=O)N[C@H](CO)C(=O)O)c(O)c3-c3c(cc4c(c3O)C(=O)c3cc(OC)cc(O)c3C4=O)[C@@H]2O)O[C@@H]1C [BU-3608 FA-1] | 6.3 (≈ 7.35 µM) | 6.3 (≈ 7.35 µM) | 3.1 (≈ 3.62 µM) | 3.1 (≈ 3.62 µM) | 12.5 (≈ 14.6 µM) | 0.8 (≈ 0.934 µM) | 6.3 (≈ 7.35 µM) | 0.8 (≈ 0.934 µM) | 6.3 (≈ 7.35 µM) | > 100 | 12.5 (≈ 14.6 µM) | 1.6 (≈ 1.87 µM) | 6.3 (≈ 7.35 µM) | 6.3 (≈ 7.35 µM) | 18 | 
COc1cc(O)c2c(c1)C(=O)c1c(cc3c(c1O)-c1c(cc(C)c(C(=O)N[C@H](CO)C(=O)O)c1O)[C@H](O[C@@H]1O[C@H](C)[C@H](N(C)C)[C@H](O[C@@H]4OC[C@@H](O)[C@H](O)[C@H]4O)[C@H]1O)[C@H]3O)C2=O [N,N-dimethyl BU-3608 FA-2] | 25 (≈ 28.7 µM) | 3.1 (≈ 3.56 µM) | 3.1 (≈ 3.56 µM) | 6.3 (≈ 7.23 µM) | 6.3 (≈ 7.23 µM) | 0.8 (≈ 0.919 µM) | 3.1 (≈ 3.56 µM) | 0.8 (≈ 0.919 µM) | 25 (≈ 28.7 µM) |  |  | 1.6 (≈ 1.84 µM) | 6.3 (≈ 7.23 µM) | 12.5 (≈ 14.4 µM) | 9 | ED50 (A. fumigatus IAM2034 [12]; qd × 5 (day 0 to day 4)): 15 mg/kg; ED50 (A. fumigatus IAM2034 [12]; [15]): 36 mg/kg; ED50 (C. albicans A9540 [11]; qd × 5 (day 0 to day 4)): 7.5 mg/kg; ED50 (C. neoformans IAM4514 [13]; qd × 5 (day 0 to day 4)): 2.8 mg/kg; ED50 (C. neoformans IAM4514 [13]; [15]): 11 mg/kg; LD50 determination: lethal toxicity and toxic signs (mice): neither lethal toxicity nor any significant toxic sign was observed
COc1cc(O)c2c(c1)C(=O)c1c(cc3c(c1O)-c1c(cc(C)c(C(=O)N[C@H](CO)C(=O)O)c1O)[C@H](O[C@@H]1O[C@H](C)[C@H](N(C)C)[C@H](O)[C@H]1O)[C@H]3O)C2=O [Des-xylosyl N,N-dimethyl BU-3608 FA-2] | 12.5 (≈ 16.9 µM) | 6.3 (≈ 8.53 µM) | 6.3 (≈ 8.53 µM) | 3.1 (≈ 4.2 µM) | 6.3 (≈ 8.53 µM) | 1.6 (≈ 2.17 µM) | 6.3 (≈ 8.53 µM) | 1.6 (≈ 2.17 µM) | 50 (≈ 67.7 µM) | 25 (≈ 33.8 µM) | 100 (≈ 135 µM) | 3.1 (≈ 4.2 µM) | 6.3 (≈ 8.53 µM) | 6.3 (≈ 8.53 µM) |  | 
CN[C@@H]1[C@H](O)[C@@H](O)[C@H](O[C@H]2c3cc(C)c(C(=O)N[C@H](CO)C(=O)O)c(O)c3-c3c(cc4c(c3O)C(=O)c3cc(OC)cc(O)c3C4=O)[C@@H]2O)O[C@@H]1C [Des-xylosyl BU-3608 FA-1] | 50 (≈ 69 µM) | 6.3 (≈ 8.69 µM) | 6.3 (≈ 8.69 µM) | 6.3 (≈ 8.69 µM) | 3.1 (≈ 4.28 µM) | 1.6 (≈ 2.21 µM) | 3.1 (≈ 4.28 µM) | 1.6 (≈ 2.21 µM) | > 100 | 12.5 (≈ 17.2 µM) | > 100 | 6.3 (≈ 8.69 µM) | 12.5 (≈ 17.2 µM) | 12.5 (≈ 17.2 µM) |  | 
COc1cc(O)c2c(c1)C(=O)c1c(cc3c(c1O)-c1c(cc(C)c(C(=O)N[C@H](CO)C(=O)O)c1O)[C@H](O[C@@H]1O[C@H](C)[C@H](N)[C@H](O)[C@H]1O)[C@H]3O)C2=O [Des-xylosyl BU-3608 FA-2] | 50 (≈ 70.4 µM) | 12.5 (≈ 17.6 µM) | 12.5 (≈ 17.6 µM) | 6.3 (≈ 8.87 µM) | 3.1 (≈ 4.36 µM) | 3.1 (≈ 4.36 µM) | 3.1 (≈ 4.36 µM) | 3.1 (≈ 4.36 µM) | > 100 | 25 (≈ 35.2 µM) | > 100 | 6.3 (≈ 8.87 µM) | 12.5 (≈ 17.6 µM) | 12.5 (≈ 17.6 µM) |  | 
COc1cc(O)c2c(c1)C(=O)c1c(cc3c(c1O)-c1c(cc(C)c(C(=O)N[C@H](CO)C(=O)O)c1O)[C@H](O[C@@H]1O[C@H](C)[C@H](N)[C@H](O[C@@H]4OC[C@@H](O)[C@H](O)[C@H]4O)[C@H]1O)[C@H]3O)C2=O [BU-3608 FA-2] | 6.3 (≈ 7.48 µM) | 6.3 (≈ 7.48 µM) | 3.1 (≈ 3.68 µM) | 3.1 (≈ 3.68 µM) | 6.3 (≈ 7.48 µM) | 0.8 (≈ 0.949 µM) | 6.3 (≈ 7.48 µM) | 0.8 (≈ 0.949 µM) | 6.3 (≈ 7.48 µM) | > 100 | 25 (≈ 29.7 µM) | 1.6 (≈ 1.9 µM) | 6.3 (≈ 7.48 µM) | 6.3 (≈ 7.48 µM) | 7.4 | 
CC(=O)Cc1cc2c(c(O)c1C(=O)O)-c1cc3c(c(O)c1CC2)C(=O)c1c(O)cc(O)cc1C3=O [KS-619-1] |  |  |  |  |  |  |  |  |  |  |  |  |  |  |  | inhibitor of calcium ion and calmodulin-dependent cyclic nucleotide phosphodiesterase [14]: inhibitor of calcium ion and calmodulin-dependentcyclic nucleotide phosphodiesterase
